Measured values from US20250074911A1, “MACROCYCLIC BTK INHIBITORS” (Crossfire Oncology Holding B.V., priority 2021, published 2025).
Values joined by “and” are separate entries in the source; they are usually repeats but may differ in a detail not shown here. Equal entries are not always repeated.

Experiments:
[1] = target: BTK T316A (Homo sapiens (Human), UniProt Q06187, T316A); assay: Binding kinetics measurements (Surface Plasmon Resonance) on BTK T316A; settings: for Kd: binding affinity by Surface Plasmon Resonance (SPR); for Tau (h) BTK T316A (Act): target residence time, SPR
Chain of BTK T316A (Q06187 whole entry T316A): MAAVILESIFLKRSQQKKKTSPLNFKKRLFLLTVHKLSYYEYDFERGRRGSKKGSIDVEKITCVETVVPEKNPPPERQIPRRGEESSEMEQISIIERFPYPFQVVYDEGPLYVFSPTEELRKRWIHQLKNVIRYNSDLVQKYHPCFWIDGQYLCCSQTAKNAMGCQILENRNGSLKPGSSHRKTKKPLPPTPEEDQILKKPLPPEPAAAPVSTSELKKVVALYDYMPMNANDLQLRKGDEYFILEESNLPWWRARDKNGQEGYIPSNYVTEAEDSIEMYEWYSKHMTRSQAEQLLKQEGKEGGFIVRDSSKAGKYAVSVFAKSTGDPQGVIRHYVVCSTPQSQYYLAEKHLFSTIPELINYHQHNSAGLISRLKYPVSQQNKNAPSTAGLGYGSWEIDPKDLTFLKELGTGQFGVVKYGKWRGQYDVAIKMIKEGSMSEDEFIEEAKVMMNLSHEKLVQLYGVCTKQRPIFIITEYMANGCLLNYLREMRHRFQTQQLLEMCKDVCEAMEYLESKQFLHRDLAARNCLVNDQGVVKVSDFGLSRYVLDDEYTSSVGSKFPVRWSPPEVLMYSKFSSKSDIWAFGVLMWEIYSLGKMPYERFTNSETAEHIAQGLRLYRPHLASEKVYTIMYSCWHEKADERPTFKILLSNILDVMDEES
Summary of the method: (§1)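 SPR, single cycle kinetics: 5 injections, 3.16-316 nM, 30 μl/min (avoids mass transport limitation), 22° C, 1% DMSO buffer. Protein immobilized at 4° C on streptavidin chip, biocytin block. Blank run first; reference channel and buffer curves subtracted.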

[2] = target: full-length BTK C481S enzyme (Homo sapiens (Human), UniProt Q06187, C481S); assay: Biochemical kinase assay BTK C481S (IMAP)
Chain of full-length BTK C481S enzyme (Q06187 whole entry C481S): as the sequence (Q06187 whole entry T316A) above, with A316T, C481S counted along it
Summary of the method: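 Full-length BTK C481S (1.2 nM) was pre-incubated with compound for 1 h at room temperature in the dark, then reacted with fluorescein-labelled MBP-derived peptide (50 nM) and ATP (7 μM) for 2 h. Reactions were quenched with IMAP binding solution, and IC50 values were derived from fluorescence polarization.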

[3] = target: BTK T474I (Homo sapiens (Human), UniProt Q06187, T474I); assay: Binding kinetics measurements (Surface Plasmon Resonance) on BTK T474I; settings: for Kd: binding affinity by Surface Plasmon Resonance (SPR); for Tau (h) BTK T474I (Act): target residence time, SPR
Chain of BTK T474I (Q06187 whole entry T474I): as the sequence (Q06187 whole entry T316A) above, with A316T, T474I counted along it
Summary of the method: as §1

[4] = target: full-length wt-BTK enzyme (Homo sapiens (Human), UniProt Q06187); assay: Biochemical kinase assay wt-BTK (IMAP)
Chain of full-length wt-BTK enzyme (Q06187 whole entry): as the sequence (Q06187 whole entry T316A) above, with A316T counted along it
Summary of the method: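 IMAP fluorescence polarization assay: 1.2 nM enzyme pre-incubated 1 h with compound at room temperature, then 50 nM fluorescein-labeled MBP-derived peptide and 4 μM ATP added. Reaction ran 2 h at room temperature in the dark before quenching with IMAP binding solution.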

[5] = target: BTK C481S (Homo sapiens (Human), UniProt Q06187, C481S); assay: Binding kinetics measurements (Surface Plasmon Resonance) on BTK C481S; settings: for Kd: binding affinity by Surface Plasmon Resonance (SPR); for Tau (h) BTK C418S (Act): target residence time for BTK C481S, SPR
Chain of BTK C481S (Q06187 whole entry C481S): as the sequence (Q06187 whole entry T316A) above, with A316T, C481S counted along it
Summary of the method: as §1

[6] = target: BTK T474S (Homo sapiens (Human), UniProt Q06187, T474S); assay: Binding kinetics measurements (Surface Plasmon Resonance) on BTK T474S; settings: for residence time: SPR binding kinetics, BTK T474S, read-out: Tau (h) BTK T474S (Act), target residence time (converted); for Kd: binding affinity by Surface Plasmon Resonance (SPR)
Chain of BTK T474S (Q06187 whole entry T474S): as the sequence (Q06187 whole entry T316A) above, with A316T, T474S counted along it
Summary of the method: as §1

[7] = test system: wt-TMD8 diffuse large B-cell lymphoma cells; assay: Cell proliferation assay wt-TMD8 (ATPlite, 120 hours); assay type: cell-based; settings: B-cell; wt-TMD8 cells, 120 hours, ATPlite; read-out: IC50 wt-TMD8
Summary of the method: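 wt-TMD8 DLBCL cells, 1600 per well in RPMI-1640 with 10% FBS, rested ≥5 h then exposed to compound for 120 h at 37° C, 5% CO2. Viability read by ATPlite luminescence; percentage growth calculated relative to start-of-incubation signal and untreated 0.3% DMSO maximum growth.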

[8] = test system: wt-REC-1 mantle cell lymphoma cells; assay: Cell proliferation assay wt-REC-1 (ATPlite, 72 hours); assay type: cell-based; settings: 72 h; read-out: IC50 wt-REC-1
Summary of the method: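 Luminescent viability read over 72 h, start-of-incubation signal recorded separately to separate growth from cell death. Percentage growth referenced to compound-free 0.3% DMSO wells; IC50 from 4-parameter logistic fit.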

[9] = target: wt-BTK (Homo sapiens (Human), UniProt Q06187); assay: Binding kinetics measurements (Surface Plasmon Resonance) on wt-BTK; settings: for Kd: binding affinity by Surface Plasmon Resonance (SPR); for Tau (h) wt-BTK (Act): target residence time, SPR
Chain of wt-BTK (Q06187 whole entry): as the sequence (Q06187 whole entry T316A) above, with A316T counted along it
Summary of the method: as §1

[10] = test system: REC-1 T474I cell lines; assay: Cell proliferation assay REC-1 BTK T474I knock-in cells (ATPlite, 72 hours); assay type: cell-based; settings: Homo sapiens, Rec1; 72 hours; read-out: IC50 REC-1 T474I
Summary of the method: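 REC-1 cells carrying CRISPR knock-in mutant BTK, single-cell cloned and sequence-confirmed, were exposed to compound for 72 h and read by ATPlite luminescence. Percentage growth was calculated against the signal at the start of incubation and against untreated 0.3% DMSO wells as maximum growth.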

| Compound | Kd [1] | Tau (h) BTK T316A (Act) [1] | IC50 [2] | Kd [3] | IC50 [4] | Kd [5] | Tau (h) BTK C418S (Act) [5] | residence time [6] | Kd [6] | IC50 [7] | IC50 [8] | Kd [9] | Tau (h) wt-BTK (Act) [9] | Tau (h) BTK T474I (Act) [3] | IC50 [10] |
| --- | --- | --- | --- | --- | --- | --- | --- | --- | --- | --- | --- | --- | --- | --- | --- |
| C[C@@H]1CCn2nc(-c3ccc(C(=O)Nc4cc(C(F)(F)F)ccn4)cc3)c3c(N)ncc(c32)/C=C/COCCC(=O)N1 [Example 71] | < 5 nM | 4.64 h | < 5 nM | < 2 nM | < 5 nM | < 5 nM | 4.52 h | 4.32 h | < 3 nM | < 100 nM | < 100 nM | < 5 nM | 7.08 h | 0.52 h | 100 to 500 nM |
| C[C@@H]1CCn2nc(-c3ccc(C(=O)Nc4cc(C(F)(F)F)ccn4)cc3)c3c(N)ncc(c32)/C=C/CCCC(=O)N1 [Example 76] | < 5 nM |  | < 5 nM | 10 to 50 nM and < 5 nM | < 5 nM | < 5 nM | 1.63 h | 1.85 h | < 3 nM | < 100 nM | 100 to 1000 nM | < 5 nM | 0.97 h |  | 500 to 10000 nM |
| Nc1ncc2c3c1c(-c1ccc(C(=O)Nc4cc(C(F)(F)F)ccn4)cc1)nn3[C@@H]1CCCN(C1)C(=O)CCCCCC/C=C/2 [Example 79] | < 5 nM | 3.23 h | < 5 nM | < 2 nM | < 5 nM | < 5 nM | 7.11 h | 6.2 h | < 3 nM | < 100 nM | < 100 nM | < 5 nM | 8.24 h | 1.80 h | 100 to 500 nM |
| Nc1ncc2c3c1c(-c1ccc(C(=O)Nc4cc(C(F)(F)F)ccn4)cc1)nn3[C@@H]1CCCN(C1)C(=O)CCCCCC(O)/C=C/2 (stereo partly shown) [Example 83] | < 5 nM | 1.36 h | < 5 nM | < 2 nM | < 5 nM | < 5 nM | 4.44 h | 3.04 h | < 3 nM | < 100 nM | < 100 nM | < 5 nM | 2.95 h |  | 500 to 10000 nM |

Second part, led by results:

| Kd [1] | Tau (h) BTK T316A (Act) [1] | IC50 [2] | Kd [3] | IC50 [4] | Kd [5] | Tau (h) BTK C418S (Act) [5] | residence time [6] | Kd [6] | IC50 [7] | IC50 [8] | Kd [9] | Tau (h) wt-BTK (Act) [9] | Tau (h) BTK T474I (Act) [3] | Compound | IC50 [10] |
| --- | --- | --- | --- | --- | --- | --- | --- | --- | --- | --- | --- | --- | --- | --- | --- |
| < 5 nM | 1.46 h | < 5 nM | 10 to 50 nM and < 5 nM | < 5 nM | < 5 nM | 2.74 h | 2.62 h | < 3 nM | < 100 nM | < 100 nM | < 5 nM | 2.24 h |  | C[C@@H]1CCn2nc(-c3ccc(C(=O)Nc4cc(C(F)(F)F)ccn4)cc3)c3c(N)ncc(c32)/C=C/COCC(=O)N1 [Example 56] | 500 to 10000 nM |
| < 5 nM | 2.06 h | < 5 nM | < 2 nM | < 5 nM | < 5 nM | 7.92 h | 1.96 h | < 3 nM | < 100 nM | < 100 nM | < 5 nM | 2.14 h |  | C[C@@H]1CCn2nc(-c3ccc(C(=O)Nc4cc(C(F)(F)F)ccn4)cc3)c3c(N)ncc(c32)/C=C/CO[C@H](C)C(=O)N1 [Example 57] | 500 to 10000 nM |
| < 5 nM | 1.04 h | < 5 nM | 10 to 50 nM and < 5 nM | < 5 nM | < 5 nM | 2.05 h |  | < 3 nM | < 100 nM | < 100 nM | < 5 nM | 1.10 h |  | C[C@@H]1CCn2nc(-c3ccc(C(=O)Nc4cc(C(F)(F)F)ccn4)cc3)c3c(N)ncc(c32)/C=C/CCOCC(=O)N1 [Example 59] | 500 to 10000 nM |
| < 5 nM | 3.79 h | < 5 nM | < 2 nM | < 5 nM | < 5 nM | 2.39 h | 3.79 h | < 3 nM | < 100 nM | < 100 nM | < 5 nM | 4.48 h |  | C[C@@H]1CCn2nc(-c3ccc(C(=O)Nc4cc(C(F)(F)F)ccn4)cc3)c3c(N)ncc(c32)/C=C/CCN2CC[C@H]2C(=O)N1 [Example 68] | 500 to 10000 nM |
